Here are results for 14 molecules from ChEMBL document CHEMBL3414557, “Synthesis, molecular docking and Brugia malayi thymidylate kinase (BmTMK) enzyme inhibition study of novel derivatives of [6]-shogaol” (Eur J Med Chem, 2015).

Activity calls are given as the source filed them. The rule behind the calls is not given here.

Experiment [1] in a line: (§1) Inhibition of Brugia malayi thymidylate kinase using dTMP substrate by spectrophotometric assay.
For another experiment, the system named is Brugia malayi. The experiment is described as §1.

Consider `CCCCCC(CC(=O)CCc1ccc(O)c(OC)c1)n1cc(C)c(=O)[nH]c1=O` (centres undefined), for which the Ki (commonly a measure of affinity in units of concentration, obtained from inhibition or displacement) in experiment [1] was 6.57 µM.
Same read-out and setting: in the case of `CCCCCC(CC(=O)CCc1ccc(OC(=O)/C=C/c2ccc(F)cc2)c(OC)c1)n1cc(C)c(=O)[nH]c1=O` (centres undefined) it was 44.4 µM.
As for `CCCCCC(CC(=O)CCc1ccc(O)c(OC)c1)Nc1cc(C)ccn1` (centres undefined), the Ki in experiment [1] turned out to be 21.6 µM.
In the case of `CCCCCC(CC(=O)CCc1ccc(OS(=O)(=O)c2ccc(C)cc2)c(OC)c1)n1cc(C)c(=O)[nH]c1=O` (centres undefined), the Ki in experiment [1] is 45.7 µM.
`CCCCCC(CC(=O)CCc1ccc(O)c(OC)c1)n1cnc2c(N)ncnc21` (centres undefined) had a Ki in experiment [1] of 9.01 µM.
Still for that read-out and setting: in the case of `CCCCCC(CC(=O)CCc1ccc(OC(=O)c2ccc(OC)cc2)c(OC)c1)n1cc(C)c(=O)n(C(=O)c2ccc(OC)cc2)c1=O` (centres undefined) it was 20.1 µM.
In the case of `CCCCCC(CC(=O)CCc1ccc(OC(=O)c2ccc(Cl)nc2)c(OC)c1)Nc1cc(C)ccn1` (centres undefined), the affinity in experiment [1] corresponds to a Ki of 30.4 µM.
In experiment [1], `CCCCCC(CC(=O)CCc1ccc(O)c(OC)c1)Nc1ccc(C)cn1` (centres undefined) had a Ki of 40.6 µM.
Still for that read-out and setting: in the case of `CCCCCC(CC(=O)CCc1ccc(OC(=O)c2ccco2)c(OC)c1)n1cc(C)c(=O)n(C(=O)c2ccco2)c1=O` (centres undefined) it was 20.3 µM; in that of `CCCCC/C=C/C(=O)CCc1ccc(O)c(OC)c1` [SHOGAOL], 10.8 µM; in that of `CCCCCC(CC(=O)CCc1ccc(O)c(OC)c1)Nc1ncccc1C` (centres undefined), 11.1 µM.
Turning to `CCCCCC(CC(=O)CCc1ccc(OC(=O)c2ccc(Cl)nc2)c(OC)c1)n1cc(C)c(=O)[nH]c1=O` (centres undefined), the inhibition entry in the experiment with Brugia malayi is “inactive”.
As for `CCCCCC(CC(=O)CCc1ccc(O)c(OC)c1)n1cc(Br)c(=O)[nH]c1=O` (centres undefined), the Ki in experiment [1] worked out at 8.32 µM.
The same measure, in the same setting: the figure for `CCCCCC(CC(=O)CCc1ccc(OS(C)(=O)=O)c(OC)c1)n1cc(C)c(=O)[nH]c1=O` (centres undefined) is 66.1 µM.
